Reference: patent publication US6355799B1, “Substituted benzene compounds, process for their preparation, and herbicidal and defoliant compositions containing them” (ISK Americas Incorporated, priority 1997, dated 2002)

Tests used:
Type in all cases: in vivo
[1] = test system: field corn (Zea mays L., var. Dekalb 535, CORN); assay: Post-emerge test, crop safety; conditions: post-emerge, 14 days after application, rating scale 0-100
Summary of the method: (§1)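 Compounds in acetone were track-sprayed at 187 l/ha, 15–1000 g ai/ha, onto sandy loam pots. Pre-emerge seeds were sown one day before spraying, with surface watering afterwards. Post-emerge plants were at the 2–3 leaf stage and sprayed with 0.25% v/v non-ionic surfactant. Injury was rated 0–100 at 14 days.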

[2] = test system: upland rice (Oryza sp., var. Tebonnet, RICE); assay: Post-emerge test, crop safety; conditions: post-emerge, 14 days after application, rating scale 0-100
Summary of the method: as §1

[3] = test system: lambsquarters (Chenopodium album, CHEAL); assay: Pre-emerge test, greenhouse herbicide activity screening; conditions: pre-emerge, 14 days after application, rating scale 0-100
Summary of the method: as §1

[4] = test system: green foxtail (Setaria viridis, SETVI); assay: as above; conditions: pre-emerge, 14 days after application, rating scale 0-100
Summary of the method: as §1

[5] = test system: velvetleaf (Abutilon theophrasti, ABUTH); assay: as above; conditions: pre-emerge, 14 days after application, rating scale 0-100
Summary of the method: as §1

[6] = test system: sicklepod (Cassia obtusifolia, CASOB); assay: as above; conditions: pre-emerge, 14 days after application, rating scale 0-100
Summary of the method: as §1

[7] = test system: ivyleaf morningglory (Ipomoea hederacea, IPOHE); assay: as above; conditions: pre-emerge, 14 days after application, rating scale 0-100
Summary of the method: as §1

[8] = test system: barnyardgrass (Echinochloa crus-galli, ECHCG); assay: as above; conditions: pre-emerge, 14 days after application, rating scale 0-100
Summary of the method: as §1

[9] = test system: large crabgrass (Digitaria sanguinalis, DIGSA); assay: as above; conditions: pre-emerge, 14 days after application, rating scale 0-100
Summary of the method: as §1

[10] = test system: redroot pigweed (Amaranthus retroflexus, AMARE); assay: as above; conditions: pre-emerge, 14 days after application, rating scale 0-100
Summary of the method: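 Compounds in acetone were track-sprayed at 15-1000 g ai/ha (187 l/ha) on sandy loam pots: pre-emerge one day after seeding, post-emerge at 2-3 leaf stage with 0.25% v/v non-ionic surfactant. Phytotoxicity was rated 14 days later on a 0 (no damage) to 100 (complete death) scale.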

[11] = test system: redroot pigweed (Amaranthus retroflexus, AMARE); assay: Post-emerge test, greenhouse herbicide activity screening; conditions: post-emerge, 14 days after application
Summary of the method: (§2)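 Plants grown in 10 cm pots of sandy loam mix received acetone-dissolved compounds through a moving flat-fan nozzle. Doses ranged from 15 to 1000 g ai/ha. Pre-emerge pots were seeded one day earlier, post-emerge pots 8–21 days earlier. Fourteen days on, each pot was graded 0–100 for damage.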

[12] = test system: lambsquarters (Chenopodium album, CHEAL); assay: as above; conditions: post-emerge, 14 days after application, rating scale 0-100
Summary of the method: as §2

[13] = test system: green foxtail (Setaria viridis, SETVI); assay: as above; conditions: post-emerge, 14 days after application, rating scale 0-100
Summary of the method: as §2

[14] = test system: velvetleaf (Abutilon theophrasti, ABUTH); assay: as above; conditions: post-emerge, 14 days after application, rating scale 0-100
Summary of the method: as §2

[15] = test system: sicklepod (Cassia obtusifolia, CASOB); assay: as above; conditions: post-emerge, 14 days after application, rating scale 0-100
Summary of the method: as §2

[16] = test system: ivyleaf morningglory (Ipomoea hederacea, IPOHE); assay: as above; conditions: post-emerge, 14 days after application, rating scale 0-100
Summary of the method: as §2

[17] = test system: barnyardgrass (Echinochloa crus-galli, ECHCG); assay: as above; conditions: post-emerge, 14 days after application, rating scale 0-100
Summary of the method: as §2

[18] = test system: large crabgrass (Digitaria sanguinalis, DIGSA); assay: as above; conditions: post-emerge, 14 days after application, rating scale 0-100
Summary of the method: as §2

[19] = test system: field corn (Zea mays L., var. Dekalb 535, CORN); assay: Pre-emerge test, crop safety; conditions: pre-emerge, 14 days after application, rating scale 0-100
Summary of the method: (§3)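 Rating: 0–100 visual injury, 14 DAA. Application: acetone, 187 l/ha, 15–1000 g ai/ha, flat-fan track sprayer with nozzle 40–45 cm above soil or canopy. Post-emerge runs used 0.25% v/v surfactant on 2–3 leaf plants.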

[20] = test system: upland rice (Oryza sp., var. Tebonnet, RICE); assay: Pre-emerge test, crop safety; conditions: pre-emerge, 14 days after application, rating scale 0-100
Summary of the method: as §3

[21] = 63 g ai/ha, rating scale 0-100 (0 no damage, 100 complete death)
[22] = 250 g ai/ha, rating scale 0-100

| Structure (SMILES) | Post-emerge Herbicidal Activity CORN (crop damage rating) ([1]; 63 g ai/ha) | Post-emerge Herbicidal Activity CORN (crop damage rating) ([1]; 250 g ai/ha) | Post-emerge Herbicidal Activity RICE (crop damage rating) ([2]; 63 g ai/ha) | Post-emerge Herbicidal Activity RICE (crop damage rating) ([2]; 250 g ai/ha) | phytotoxicity rating CHEAL ([3]; 63 g ai/ha) | phytotoxicity rating CHEAL ([3]; 250 g ai/ha) | phytotoxicity rating SETVI ([4]; 63 g ai/ha) | phytotoxicity rating SETVI ([4]; 250 g ai/ha) | phytotoxicity rating ABUTH ([5]; 63 g ai/ha) | phytotoxicity rating ABUTH ([5]; 250 g ai/ha) | phytotoxicity rating CASOB ([6]; 63 g ai/ha) | phytotoxicity rating CASOB ([6]; 250 g ai/ha) | phytotoxicity rating IPOHE ([7]; 63 g ai/ha) | phytotoxicity rating IPOHE ([7]; 250 g ai/ha) | phytotoxicity rating ECHCG ([8]; 63 g ai/ha) | phytotoxicity rating ECHCG ([8]; 250 g ai/ha) | phytotoxicity rating DIGSA ([9]; 63 g ai/ha) | phytotoxicity rating DIGSA ([9]; 250 g ai/ha) | phytotoxicity rating AMARE ([10]; 63 g ai/ha) | phytotoxicity rating AMARE ([10]; 250 g ai/ha) | also measured |
| --- | --- | --- | --- | --- | --- | --- | --- | --- | --- | --- | --- | --- | --- | --- | --- | --- | --- | --- | --- | --- | --- |
| COc1c(Cl)cc(F)c(-n2c(=O)cc(C(F)(F)F)n(C)c2=O)c1NNC(=O)Nc1ccc(F)cc1F [15-8] | 0 | 55 | 10 | 60 | 60 | 100 | 20 | 0 | 40 | 100 | 20 | 80 | 0 | 70 | 0 | 40 | 30 | 100 | 60 | 100 | Post-emerge Herbicidal Activity AMARE (phytotoxicity rating) [11, 21]: 20; Post-emerge Herbicidal Activity AMARE (phytotoxicity rating) [11, 22]: 60; Post-emerge Herbicidal Activity CHEAL (phytotoxicity rating) ([12]; 63 g ai/ha): 95; Post-emerge Herbicidal Activity CHEAL (phytotoxicity rating) ([12]; 250 g ai/ha): 90; Post-emerge Herbicidal Activity SETVI (phytotoxicity rating) ([13]; 63 g ai/ha): 0; Post-emerge Herbicidal Activity SETVI (phytotoxicity rating) ([13]; 250 g ai/ha): 30; Post-emerge Herbicidal Activity ABUTH (phytotoxicity rating) ([14]; 63 g ai/ha): 70; Post-emerge Herbicidal Activity ABUTH (phytotoxicity rating) ([14]; 250 g ai/ha): 100; Post-emerge Herbicidal Activity CASOB (phytotoxicity rating) ([15]; 63 g ai/ha): 0; Post-emerge Herbicidal Activity CASOB (phytotoxicity rating) ([15]; 250 g ai/ha): 40; Post-emerge Herbicidal Activity IPOHE (phytotoxicity rating) ([16]; 63 g ai/ha): 50; Post-emerge Herbicidal Activity IPOHE (phytotoxicity rating) ([16]; 250 g ai/ha): 90; Post-emerge Herbicidal Activity ECHCG (phytotoxicity rating) ([17]; 63 g ai/ha): 0; Post-emerge Herbicidal Activity ECHCG (phytotoxicity rating) ([17]; 250 g ai/ha): 20; Post-emerge Herbicidal Activity DIGSA (phytotoxicity rating) ([18]; 63 g ai/ha): 0; Post-emerge Herbicidal Activity DIGSA (phytotoxicity rating) ([18]; 250 g ai/ha): 0; phytotoxicity rating CORN ([19]; 63 g ai/ha): 0; phytotoxicity rating CORN ([19]; 250 g ai/ha): 90; phytotoxicity rating RICE ([20]; 63 g ai/ha): 15; phytotoxicity rating RICE ([20]; 250 g ai/ha): 90 |
| COc1c(Cl)cc(F)c(-n2c(=O)cc(C(F)(F)F)n(C)c2=O)c1NN=Cc1ccc(F)cc1F [15-20] | 40 | 85 | 35 | 80 | 100 | 100 | 100 | 100 | 100 | 100 | 60 | 100 | 80 | 80 | 50 | 100 | 100 | 100 | 100 | 100 | Post-emerge Herbicidal Activity AMARE (phytotoxicity rating) [11, 21]: 100; Post-emerge Herbicidal Activity AMARE (phytotoxicity rating) [11, 22]: 100; Post-emerge Herbicidal Activity CHEAL (phytotoxicity rating) ([12]; 63 g ai/ha): 100; Post-emerge Herbicidal Activity CHEAL (phytotoxicity rating) ([12]; 250 g ai/ha): 100; Post-emerge Herbicidal Activity SETVI (phytotoxicity rating) ([13]; 63 g ai/ha): 80; Post-emerge Herbicidal Activity SETVI (phytotoxicity rating) ([13]; 250 g ai/ha): 100; Post-emerge Herbicidal Activity ABUTH (phytotoxicity rating) ([14]; 63 g ai/ha): 100; Post-emerge Herbicidal Activity ABUTH (phytotoxicity rating) ([14]; 250 g ai/ha): 100; Post-emerge Herbicidal Activity CASOB (phytotoxicity rating) ([15]; 63 g ai/ha): 80; Post-emerge Herbicidal Activity CASOB (phytotoxicity rating) ([15]; 250 g ai/ha): 100; Post-emerge Herbicidal Activity IPOHE (phytotoxicity rating) ([16]; 63 g ai/ha): 100; Post-emerge Herbicidal Activity IPOHE (phytotoxicity rating) ([16]; 250 g ai/ha): 100; Post-emerge Herbicidal Activity ECHCG (phytotoxicity rating) ([17]; 63 g ai/ha): 50; Post-emerge Herbicidal Activity ECHCG (phytotoxicity rating) ([17]; 250 g ai/ha): 100; Post-emerge Herbicidal Activity DIGSA (phytotoxicity rating) ([18]; 63 g ai/ha): 30; Post-emerge Herbicidal Activity DIGSA (phytotoxicity rating) ([18]; 250 g ai/ha): 90; phytotoxicity rating CORN ([19]; 63 g ai/ha): 65; phytotoxicity rating CORN ([19]; 250 g ai/ha): 95; phytotoxicity rating RICE ([20]; 63 g ai/ha): 70; phytotoxicity rating RICE ([20]; 250 g ai/ha): 100 |
